Assay results taken from the supplement of paper PMC10307832.

Key:
Experiment in all cases: relative viability (nuclei count vs DMSO), 5 days (fraction); higher = more cells survive
Sunitinib + OSI-027 = compound: CCN(CC)CCNC(=O)c1c(C)[nH]c(/C=C2\C(=O)Nc3ccc(F)cc32)c1C [Sunitinib] + COc1cccc2cc(-c3nc([C@H]4CC[C@H](C(=O)O)CC4)n4ncnc(N)c34)[nH]c12 [OSI-027] (partner 0.5 µM)
In short: (§1)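 One day after seeding in 1536-well plates, lung cancer cell lines were dosed by pin tool. Dosing was either single-drug or a fixed anchor-drug dose plus five library-drug doses (not always all listed) in √10 steps. After 5 days, nuclei were stained in one fix-and-stain step and counted on 4× images, and relative viability is the nuclei count of treated wells over that of vehicle wells, given as the median of duplicate plates.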

Sunitinib + Lapatinib = compound: CCN(CC)CCNC(=O)c1c(C)[nH]c(/C=C2\C(=O)Nc3ccc(F)cc32)c1C [Sunitinib] + CS(=O)(=O)CCNCc1ccc(-c2ccc3ncnc(Nc4ccc(OCc5cccc(F)c5)c(Cl)c4)c3c2)o1 [Lapatinib] (partner 2 µM)
In short: as §1

Sunitinib + Linsitinib = compound: CCN(CC)CCNC(=O)c1c(C)[nH]c(/C=C2\C(=O)Nc3ccc(F)cc32)c1C [Sunitinib] + C[C@]1(O)C[C@@H](c2nc(-c3ccc4ccc(-c5ccccc5)nc4c3)c3c(N)nccn32)C1 [Linsitinib] (partner 1 µM)
In short: as §1

Sunitinib + Alpelisib = compound: CCN(CC)CCNC(=O)c1c(C)[nH]c(/C=C2\C(=O)Nc3ccc(F)cc32)c1C [Sunitinib] + Cc1nc(NC(=O)N2CCC[C@H]2C(N)=O)sc1-c1ccnc(C(C)(C)C(F)(F)F)c1 [Alpelisib] (partner 2 µM)
In short: as §1

Cell Line | relative viability (Sunitinib + OSI-027; first compound 0.02 µM) | relative viability (Sunitinib + OSI-027; first compound 0.06325 µM) | relative viability (Sunitinib + OSI-027; first compound 0.2 µM) | relative viability (Sunitinib + OSI-027; first compound 0.6325 µM) | relative viability (Sunitinib + OSI-027; first compound 2 µM) | relative viability (Sunitinib + Lapatinib; first compound 0.02 µM) | relative viability (Sunitinib + Lapatinib; first compound 0.06325 µM) | relative viability (Sunitinib + Lapatinib; first compound 0.2 µM) | relative viability (Sunitinib + Lapatinib; first compound 0.6325 µM) | relative viability (Sunitinib + Linsitinib; first compound 0.02 µM) | relative viability (Sunitinib + Linsitinib; first compound 0.06325 µM) | relative viability (Sunitinib + Linsitinib; first compound 0.2 µM) | relative viability (Sunitinib + Linsitinib; first compound 0.6325 µM) | relative viability (Sunitinib + Linsitinib; first compound 2 µM) | relative viability (Sunitinib + Alpelisib; first compound 0.02 µM) | relative viability (Sunitinib + Alpelisib; first compound 0.06325 µM) | relative viability (Sunitinib + Alpelisib; first compound 0.2 µM) | relative viability (Sunitinib + Alpelisib; first compound 0.6325 µM) | relative viability (Sunitinib + Alpelisib; first compound 2 µM) | relative viability (Sunitinib + Lapatinib; first compound 2 µM)
NCI-H2228 | 0.523 | 0.658 | 0.625 | 0.529 | 0.411 | 1.04 | 1.23 | 1.13 | 1.16 | 0.611 | 0.584 | 0.841 | 0.808 | 0.349 | 0.735 | 0.729 | 1 | 0.717 | 0.538 | 
NCI-H2347 | 0.451 | 0.507 | 0.67 | 0.384 | 0.552 | 0.873 |  | 1.17 | 1.03 | 0.93 | 0.991 | 1.11 | 0.991 | 0.978 | 0.996 | 1.03 | 1.13 | 1.09 | 0.947 | 0.95
NCI-H2405 | 0.647 | 0.643 | 0.631 | 0.65 | 0.673 | 1.03 | 1.21 | 1.18 | 1.18 |  | 1.02 | 0.976 | 1.08 | 0.917 | 0.816 | 0.811 | 0.862 | 1.06 | 0.713 | 
NCI-H3122 | 0.874 |  | 1.06 | 0.917 | 0.69 | 0.907 | 0.985 | 1.04 |  | 1.02 | 1.07 | 1.04 | 0.992 | 1.05 |  | 0.894 | 0.84 | 0.725 | 0.803 | 0.992
PC-3 [JPC-3] | 0.807 | 0.773 | 0.743 | 0.82 | 0.754 | 0.456 | 0.459 | 0.494 | 0.464 | 0.978 | 0.975 | 0.951 | 0.987 | 0.881 | 1.1 | 1.07 | 1.03 | 1.07 | 0.99 | 0.5
PC-14 | 0.716 | 0.893 | 1.02 | 0.795 | 0.695 | 0.301 | 0.332 | 0.369 | 0.33 |  | 1.05 | 1.04 | 1.02 | 0.881 | 0.95 | 0.874 | 1.05 | 1.08 | 0.908 | 0.314
RERF-LC-KJ | 0.55 | 0.574 | 0.689 | 0.626 | 0.525 | 0.887 | 0.844 |  |  | 0.868 | 0.869 | 0.968 | 1.07 | 0.855 | 0.775 | 0.826 | 0.932 |  | 0.789 | 0.828
SK-LU-1 | 0.323 | 0.387 | 0.4 | 0.348 | 0.199 | 0.942 | 0.853 | 1.06 | 1.02 | 1.29 | 1.09 | 1.28 |  |  | 0.863 | 1.25 | 1.12 | 1.09 | 0.669 | 0.809
SK-MES-1 | 0.583 | 0.63 | 0.681 | 0.719 | 0.56 | 0.471 | 0.502 | 0.487 | 0.481 | 0.982 | 1.1 | 1.12 | 1.08 | 1.03 | 0.885 | 1.02 | 0.86 | 1.02 | 0.927 | 0.419
SW 1573 | 0.617 | 0.938 | 0.779 | 0.781 | 0.671 | 1.19 | 1.3 | 1.31 | 1.14 | 0.987 | 1 | 0.917 | 0.999 |  | 0.715 | 0.827 | 0.932 | 0.84 | 0.784 | 
UMC-11 | 0.401 | 0.526 | 0.54 | 0.494 | 0.462 | 0.984 |  | 1.07 | 1.03 | 0.958 | 0.958 | 1.08 | 1.01 | 0.914 | 0.945 | 1.03 | 0.892 | 0.929 | 0.912 | 0.967
